Assay results published in PubChem BioAssay AID330 (DTP/NCI, 2004).
Where “and” joins values, the source holds several entries; their conditions need not be identical. Identical values can stand only once. Inconclusive results and toxic doses are left out. Rule for the calls: active = survival T/C of 150% or more; inactive = T/C below 125% in these data.

Test system: P388 leukemia ip, CD2F1 mice, survival T/C
Assay: NCI In Vivo Anticancer Drug Screen. Data for tumor model P388 Leukemia (intraperitoneal) in CD2F1 (CDF1) mice
Details: endpoint: median survival time, higher = longer survival
Method in brief: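 Mice carrying the transplanted tumor received test compound or vehicle. Survival was recorded in each group, and the value is the treated-group measurement divided by that of the vehicle-treated control group.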

[1] = dose: 100.0 mg/kg/injection, schedule: Q01DX001 (ip), vehicle: saline with Tween-80
[2] = dose: 200.0 mg/kg/injection, schedule: Q01DX001 (ip), vehicle: saline with Tween-80
[3] = dose: 400.0 mg/kg/injection, schedule: Q01DX001 (ip), vehicle: saline with Tween-80
[4] = dose: 50.0 mg/kg/injection, schedule: Q01DX005 (ip), vehicle: saline with Tween-80
[5] = dose: 100.0 mg/kg/injection, schedule: Q01DX005 (ip), vehicle: saline with Tween-80
[6] = dose: 200.0 mg/kg/injection, schedule: Q01DX005 (ip), vehicle: saline with Tween-80
[7] = dose: 100.0 mg/kg/injection, schedule: Q04DX002 (ip), vehicle: saline with Tween-80
[8] = dose: 50.0 mg/kg/injection, schedule: Q01DX009 (ip), vehicle: saline
[9] = dose: 100.0 mg/kg/injection, schedule: Q01DX009 (ip), vehicle: saline
[10] = dose: 50.0 mg/kg/injection, schedule: Q01DX009 (ip), vehicle: saline with Tween-80
[11] = dose: 100.0 mg/kg/injection, schedule: Q01DX009 (ip), vehicle: saline with Tween-80
[12] = dose: 60.0 mg/kg/injection, schedule: Q01DX005 (ip), vehicle: saline with Tween-80
[13] = dose: 12.5 mg/kg/injection, schedule: Q01DX005 (ip), vehicle: Klucel (hydroxypropylcellulose) (HPC)
[14] = dose: 25.0 mg/kg/injection, schedule: Q01DX005 (ip), vehicle: Klucel (hydroxypropylcellulose) (HPC)
[15] = dose: 50.0 mg/kg/injection, schedule: Q01DX005 (ip), vehicle: Klucel (hydroxypropylcellulose) (HPC)
[16] = dose: 100.0 mg/kg/injection, schedule: Q01DX005 (ip), vehicle: Klucel (hydroxypropylcellulose) (HPC)

Measured: T/C

Cc1nn(-c2ccccc2)c(=O)n2c(-n3c(C)nn(-c4ccccc4)c3=O)nnc12
inactive: [1] 102 % of control | [2] 105 % of control | [3] 99 % of control

CN(C)C1C(=O)C(C(=O)NCNC2C(=O)N3C2SC(C)(C)C3C(=O)O)=C(O)C2(O)C(=O)C3=C(O)c4c(O)cccc4C(C)(O)C3CC12 (stereo not drawn)
inactive: [4] 100 % of control | [5] 104 % of control | [6] 90 % of control

Cc1nnc2cc3ccccc3cn12
inactive: [4] 89 % of control | [5] 97 % of control | [6] 100 % of control

C/C(=C/C=C(c1ccccc1)c1ccccc1)C1CCC2C3CCC4CC5CCC4(C)C3(O5)C(=O)CC12C (stereo not drawn)
inactive: dose: 6.25 mg/kg/injection, schedule: Q04DX002 (sc), vehicle: steriod suspending solution 102 % of control | dose: 12.5 mg/kg/injection, schedule: Q04DX002 (sc), vehicle: steriod suspending solution 105 % of control | dose: 25.0 mg/kg/injection, schedule: Q04DX002 (sc), vehicle: steriod suspending solution 101 % of control | dose: 50.0 mg/kg/injection, schedule: Q04DX002 (sc), vehicle: steriod suspending solution 101 % of control

Cc1cc(=O)n2c(n1)sc1cc3ccccc3cc12
inactive: dose: 100.0 mg/kg/injection, schedule: Q04DX002 (ip), vehicle: Klucel (hydroxypropylcellulose) (HPC) 98 % of control | dose: 200.0 mg/kg/injection, schedule: Q04DX002 (ip), vehicle: Klucel (hydroxypropylcellulose) (HPC) 100 % of control | dose: 400.0 mg/kg/injection, schedule: Q04DX002 (ip), vehicle: Klucel (hydroxypropylcellulose) (HPC) 99 % of control

CCCCN(CCCC)c1ccc(C(=NC(C)CCCN(CC)CC)c2ccc(N(C)C)cc2)cc1 (stereo not drawn)
inactive: dose: 6.25 mg/kg/injection, schedule: Q01DX005 (ip), vehicle: saline with Tween-80 107 % of control | dose: 12.5 mg/kg/injection, schedule: Q01DX005 (ip), vehicle: saline with Tween-80 98 % of control | dose: 25.0 mg/kg/injection, schedule: Q01DX005 (ip), vehicle: saline with Tween-80 100 % of control

CSC(=S)/N=c1\c(C)cccn1C
inactive: dose: 25.0 mg/kg/injection, schedule: Q04DX002 (ip), vehicle: saline with Tween-80 98 % of control | dose: 50.0 mg/kg/injection, schedule: Q04DX002 (ip), vehicle: saline with Tween-80 100 % of control | [7] 102 % of control

CN1C2CCC1C(Br)C(=O)C2 (stereo not drawn)
inactive: dose: 50.0 mg/kg/injection, schedule: Q01DX005 (ip), vehicle: saline 100 % of control | dose: 100.0 mg/kg/injection, schedule: Q01DX005 (ip), vehicle: saline 108 % of control (2×) and 109 % of control | dose: 200.0 mg/kg/injection, schedule: Q01DX005 (ip), vehicle: saline 118 % of control

CS(=O)(=O)OCC(=O)NCCNC(=O)COS(C)(=O)=O
inactive: dose: 12.5 mg/kg/injection, schedule: Q04DX003 (ip), vehicle: saline with Tween-80 100 % of control | dose: 25.0 mg/kg/injection, schedule: Q04DX003 (ip), vehicle: saline with Tween-80 108 % of control | dose: 50.0 mg/kg/injection, schedule: Q04DX003 (ip), vehicle: saline with Tween-80 120 % of control

c1ccc2c(c1)[nH]c1c2c(N2CCOCC2)nn2nnnc12
inactive: [1] 107 % of control | [2] 106 % of control | [3] 109 % of control

CCCOCC(=O)OC
inactive: [8] 98 % of control | [9] 99 % of control | dose: 200.0 mg/kg/injection, schedule: Q01DX009 (ip), vehicle: saline 100 % of control

COC1/C=C\OC2(C)Oc3c(C)c(O)c4c(O)c(c(/C=N/N(Cc5ccccc5)C56CC7CC(CC(C7)C5)C6)c(O)c4c3C2=O)NC(=O)/C(C)=C\C=C\C(C)C(O)C(C)C(O)C(C)C(OC(C)=O)C1C (stereo not drawn)
inactive: [10] 102 % of control | [11] 100 % of control

COc1cc2nn(-c3ccccc3N)nc2cc1OC
inactive: [12] 106 % of control | dose: 120.0 mg/kg/injection, schedule: Q01DX005 (ip), vehicle: saline with Tween-80 100 % of control | dose: 240.0 mg/kg/injection, schedule: Q01DX005 (ip), vehicle: saline with Tween-80 102 % of control

CC1(C)CC2(C)OC(=O)c3ccccc3N2C(=S)N1 (stereo not drawn)
inactive: dose: 15.0 mg/kg/injection, schedule: Q01DX005 (ip), vehicle: saline with Tween-80 94 % of control | dose: 30.0 mg/kg/injection, schedule: Q01DX005 (ip), vehicle: saline with Tween-80 95 % of control | [12] 90 % of control and 96 % of control

CCCn1c(C)nc2c(N)cc(Cl)cc21
inactive: [13] 99 % of control | [14] 95 % of control | [15] 103 % of control | [16] 105 % of control

COc1ccc(N=C(C2=C(O)c3ccccc3C2=O)c2ccccc2)cc1
inactive: [7] 101 % of control | dose: 200.0 mg/kg/injection, schedule: Q04DX002 (ip), vehicle: saline with Tween-80 101 % of control | dose: 400.0 mg/kg/injection, schedule: Q04DX002 (ip), vehicle: saline with Tween-80 97 % of control

NNC(=O)c1oc2ccccc2c1CN(CCO)CCO
inactive: [4] 102 % of control | [5] 98 % of control | [6] 107 % of control

Nn1c(-c2nn[nH]n2)nnc1-c1nn[nH]n1
inactive: [14] 100 % of control | [15] 100 % of control | [16] 95 % of control

CN1C(=O)CCCCCCCCCCSc2ccccc21
inactive: [15] 93 % of control | [16] 97 % of control | dose: 200.0 mg/kg/injection, schedule: Q01DX005 (ip), vehicle: Klucel (hydroxypropylcellulose) (HPC) 88 % of control

O=C1CCCCCCCC(=O)Nc2ccc3nc4ccccc4c(c3c2)SCCCCCCCCCCCCSc2c3ccccc3nc3ccc(cc23)N1
inactive: [4] 105 % of control | [5] 107 % of control | [6] 104 % of control

C#CCSc1ncnc2nc[nH]c12
inactive: dose: 25.0 mg/kg/injection, schedule: Q01DX009 (ip), vehicle: saline 95 % of control | dose: 25.0 mg/kg/injection, schedule: Q04DX003 (ip), vehicle: saline 104 % of control | [8] 109 % of control | dose: 50.0 mg/kg/injection, schedule: Q04DX003 (ip), vehicle: saline 100 % of control | [9] 86 % of control | dose: 100.0 mg/kg/injection, schedule: Q04DX003 (ip), vehicle: saline 100 % of control

Cc1ccc(S(=O)(=O)SSC(=S)Sc2ccccc2)cc1
inactive: dose: 50.0 mg/kg/injection, schedule: Q01DX009 (ip), vehicle: Klucel (hydroxypropylcellulose) (HPC) 116 % of control | dose: 100.0 mg/kg/injection, schedule: Q01DX009 (ip), vehicle: Klucel (hydroxypropylcellulose) (HPC) 107 % of control | dose: 200.0 mg/kg/injection, schedule: Q01DX009 (ip), vehicle: Klucel (hydroxypropylcellulose) (HPC) 109 % of control

C(=N\n1cnnc1)/c1ccccc1/C=N/n1cnnc1
inactive: [11] 100 % of control | dose: 200.0 mg/kg/injection, schedule: Q01DX009 (ip), vehicle: saline with Tween-80 90 % of control | dose: 400.0 mg/kg/injection, schedule: Q01DX009 (ip), vehicle: saline with Tween-80 100 % of control

O=C(CCl)c1ccc([N+](=O)[O-])cc1
inactive: dose: 1.56 mg/kg/injection, schedule: Q01DX005 (ip), vehicle: Klucel (hydroxypropylcellulose) (HPC) 100 % of control | dose: 3.12 mg/kg/injection, schedule: Q01DX005 (ip), vehicle: Klucel (hydroxypropylcellulose) (HPC) 100 % of control | dose: 6.25 mg/kg/injection, schedule: Q01DX005 (ip), vehicle: Klucel (hydroxypropylcellulose) (HPC) 108 % of control | [13] 89 % of control and 98 % of control | [10] 116 % of control
